# PubChem BioAssay (NCI)
#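 A five-concentration, 48-hour dose response in 96-well plates underlies each endpoint, interpolated linearly between surrounding concentrations. GI50: concentration for 50% inhibition of growth. TGI marks complete inhibition of growth.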
# Tests used:
# Assay in all cases: NCI anticancer screen, dose series, 48 h
# 786-0 renal = test system: 786-0 renal
# SNB-19 CNS = test system: SNB-19 CNS
# MDA-N = test system: MDA-N
# SK-MEL-5 melanoma = test system: SK-MEL-5 melanoma
# NCI/ADR-RES ovarian = test system: NCI/ADR-RES ovarian
# HOP-62 NSCLC = test system: HOP-62 NSCLC
# IGROV1 ovarian = test system: IGROV1 ovarian
# ACHN renal = test system: ACHN renal
# DU-145 prostate = test system: DU-145 prostate
# SW-620 colon = test system: SW-620 colon
# LOX IMVI melanoma = test system: LOX IMVI melanoma
Structure (SMILES),TGI (786-0 renal),TGI (SNB-19 CNS),TGI (MDA-N),TGI (SK-MEL-5 melanoma),TGI (NCI/ADR-RES ovarian),TGI (HOP-62 NSCLC),TGI (IGROV1 ovarian),TGI (ACHN renal),TGI (DU-145 prostate),TGI (SW-620 colon),TGI (LOX IMVI melanoma),GI50 (LOX IMVI melanoma),GI50 (SNB-19 CNS),GI50 (NCI/ADR-RES ovarian),GI50 (ACHN renal),GI50 (DU-145 prostate)
CC1C(OS(=O)(=O)c2ccc3[nH]c(=S)sc3c2)CC2C3(C)CCC2(C(C)C(=O)O)C(O)C13 (centres undefined),56.8 µM,> 100 µM,69.8 µM,34.5 µM,> 100 µM,66.5 µM,35.8 µM,31.8 µM,40.4 µM,–,–,–,–,–,–,–
O=c1[nH]c2ccccc2c2oc3ccccc3c12,–,> 100 µM,> 100 µM,> 100 µM,> 100 µM,> 100 µM,> 100 µM,> 100 µM,> 100 µM,> 100 µM,–,–,–,–,–,–
NCCCCNOCCCN,–,> 100 µM,> 100 µM,> 100 µM,> 100 µM,–,> 100 µM,> 100 µM,> 100 µM,> 100 µM,> 100 µM,–,–,–,–,–
CC1=C(C(=O)NNC(=O)C[N+](C)(C)C)CC(C(=O)NNC(=O)C[N+](C)(C)C)=C(C)N1,> 100 µM,> 100 µM,> 100 µM,> 100 µM,> 100 µM,> 100 µM,> 100 µM,> 100 µM,> 100 µM,> 100 µM,> 100 µM,–,–,–,–,–
C(=C\c1cc[n+](CCc2ccccc2)cc1)/c1ccccc1,> 100 µM,50.9 µM,–,5.73 µM,> 100 µM,40.4 µM,> 100 µM,> 100 µM,> 100 µM,32.3 µM,37 µM,–,–,–,–,–
CCc1nc(N)nc(N)c1-c1ccc(N2CCOCC2)c(N=[N+]=[N-])c1,> 100 µM,> 78.4 µM,> 100 µM,> 100 µM,> 100 µM,> 100 µM,> 100 µM,> 100 µM,> 100 µM,> 100 µM,> 100 µM,–,–,–,–,–
CC(C)(C)OC(=O)CC(NC(=O)OCc1ccccc1)NC(=O)OC(C)(C)C (centres undefined),–,–,–,–,–,–,–,–,–,–,–,71.2 µg/mL,76.2 µg/mL,33.5 µg/mL,51.5 µg/mL,72.3 µg/mL
